# Assays:
# Type in all cases: cell-based, human
# Akt = assay: Western blotting of phosphorylated Akt in BT-474 cells; details: Example 2, 4-fold dilution series from 1 µmol/L in 5 steps, 2 hours
# Protocol: (§1) Human HER2-expressing human breast cancer cell line BT-474 (purchased from American Tissue Culture Collection (ATCC)) was seeded into a 24-multiwell plate (BT-474: 1.2 x 10^5 cells/well), and cultured overnight in a carbon dioxide gas incubator (5% CO2, 37°C). A 4-fold dilution series of a mitochondrial respiratory chain complex inhibiting compound (complex I: rotenone, complex III: antimycin, complex V: oligomycin: Wako Pure Chemical Industries) was added starting from a final concentration of 1 µmol/L in 5 steps while continuing culture. After 2 hours, the broth was removed, and the cells were lysed with an SDS sample buffer (200 µL). Western blotting analysis was performed as follows. Specifically, this cell lysate (8 µL) was separated by an SDS-PAGE method (gel concentration: 7.5-15%) (Analytical Biochemistry, No. 166, pp. 368-379, 1987), and transferred to a nitrocellulose membrane (BioRad). Then, an antibody specific to phosphorylated HER2 (Cell signaling technology, Code# 2244), an anti-phosphorylated Akt antibody specific to downstream antiapoptotic signal transducing molecule Akt (Cell signaling technology, Code# 9271) and an anti-phosphorylated MAPK antibody specific to downstream proliferation signal transducing molecule MAPK (Cell signaling technology, Code# 9101) were used to detect the antibody with an ECL system (Amersham) to quantify the amount of phosphorylated protein by an image analysis.
# (§2) Human HER2-expressing human cancer cell line BT-474 (purchased from ATCC) was seeded into a 24-multiwell plate (1.2 x 10^5 cells/well) and cultured overnight in a carbon dioxide gas incubator (20% O2, 5% CO2, 37°C). A 3-fold dilution series of metformin that activates AMPK (The Journal of Biological Chemistry, Vol. 279, No. 42, pp. 43940-43951, 2004) was added starting from a final concentration of 15 mmol/L in 5 steps while continuing culture. Two hours later, the broth was removed and the cells were lysed with an SDS sample buffer (200 µL). This cell lysate (8 µL) was separated by an SDS-PAGE method (gel concentration: 7.5-15%) (Analytical Biochemistry, No. 166, pp. 368-379, 1987). Then, western blotting analysis was performed in the same manner as in Example 1 to quantify phosphorylated HER2, phosphorylated Akt and phosphorylated MAPK.
# MAPK = assay: Western blotting of phosphorylated MAPK in BT-474 cells; details: Example 2, 4-fold dilution series from 1 µmol/L in 5 steps, 2 hours
# Protocol: as §1, §2
# [1] = tested on: BT-474 breast cancer cell; assay: Viable cell count using Cell Counting Kit-F; details: BT474; HER2-expressing cancer; five days of culture
# Protocol: (§3) BT-474 breast cancer cell, MDA-MB-453 breast cancer cell, A549 non-small cell lung cancer cell and LNCaP prostate cancer cell were used as human HER2-expressing cells while MDA-MB-231 breast cancer cell and A498 kidney cancer cell (all purchased from ATCC) were used as HER2-nonexpressing cells. Each of the cells used had been seeded into a 96-plate at 500cells/150 µL/well and cultured overnight. Each of the compounds, i.e., antimycin (final concentrations: 1, 0.1, 0.01 and 0.001 µmol/L), 2,4-dinitrophenol (final concentrations: 0.6, 0.2, 0.06 and 0.02 mmol/L), metformin (final concentrations: 25, 5, 1 and 0.2 mmol/L) and AICAR (final concentrations: 25, 5, 1 and 0.2 mmol/L) was diluted with a medium and added for 50 µL/well at a time to the final concentrations mentioned above. Following five days of culture at 37°C in 5% CO2, the cells were counted using Cell Counting Kit-F (Dojindo Laboratories).
# (§4) Viable cell count using Cell Counting Kit-F was carried out by the following method according to the attached instruction. The supernatant was removed from the 96-well plate after five days of culture. Cell Counting Kit-F diluted 1000-fold with an RPMI medium (phenol red-free, serum-free) was added for 100 µL/well at a time. After 30 minutes of reaction at room temperature, fluorescence (excitation wavelength; 480 nm, fluorescent wavelength; 530 nm) was determined with a fluorescent plate reader.
# (§5) From the determination results, percentage of the fluorescence level in the wells added with the compound was determined assuming that the fluorescence level in the wells without the addition of the compound (control) is 100%, and the remaining cellular quantity was determined in % with respect to that of the control.
# (§6) BT-474 breast cancer cell, MDA-MB-453 breast cancer cell and LNCaP prostate cancer cell were used as human HER2-expressing cells while MDA-MB-231 breast cancer cell and A498 kidney cancer cell (all purchased from ATCC) were used as HER2-nonexpressing cells. Each of the cells used had been seeded into a 96-well plate at 500 cells/150 µL/well and cultured overnight. Troglitazone (final concentrations: 25, 6.25 and 1.56 µmol/L) was diluted with a medium, and added for 50 µL/well at a time to the final concentrations mentioned above. Following five days of culture at 37°C in 5% CO2, the cells were counted using Cell Counting Kit-F (Dojindo Laboratories).
# as §5, with “troglitazone” for “the compound”
# [2] = tested on: LNCaP prostate cancer cell; assay: Viable cell count using Cell Counting Kit-F; details: LNCaP; HER2-expressing cancer; five days of culture
# Protocol: as §3, §4, §5, §6
# as §5, with “troglitazone” for “the compound”
# [3] = tested on: MDA-MB-453 breast cancer cell; assay: Viable cell count using Cell Counting Kit-F; details: MB453; HER2-expressing cancer; five days of culture
# Protocol: as §3, §4, §5, §6
# as §5, with “troglitazone” for “the compound”
Compound,Akt phosphorylation (Akt),MAPK phosphorylation (MAPK),minimum concentrations for inhibiting cell proliferation for 50% or more [1],minimum concentrations for inhibiting cell proliferation for 50% or more [2],minimum concentrations for inhibiting cell proliferation for 50% or more [3]
antimycin,suppressions of Akt and MAPK phosphorylations were also confirmed,suppressions of Akt and MAPK phosphorylations were also confirmed,1 nmol/L,1 nmol/L,1 nmol/L
"O=[N+]([O-])c1ccc(O)c([N+](=O)[O-])c1 [2,4-dinitrophenol]",,,<20000 nmol/L,<20000 nmol/L,<20000 nmol/L
